Laboratory results: patent US20160031839A1, “ARGININE […] INHIBITORS AND USES THEREOF” (EPIZYME, INC., priority 2013, published 2016)
Where two headings read alike, the source gives them in different places.

Columns and labels:
[1] = molecular target: T1, PRMT8 (Homo sapiens, UniProt Q9NR22); assay: PRMT8 Biochemical Assay
T1 construct: Full-length human PRMT8 (NM_019854.4) isoform 1 transcript clone; made in house; host or cells: E. coli BL21(DE3) Gold
Excerpt: (§1) Peptide representative of human histone H4 residues 31-45 was synthesized with an N-terminal linker-affinity tag motif and a C-terminal amide cap by 21st Century Biochemicals. The peptide was purified by high-performance liquid chromatography (HPLC) to greater than 95% purity and confirmed by liquid chromatography mass spectrometry (LC-MS). The sequence was Biot-Ahx-[…]-amide (SEQ ID NO.:8).
The resulting construct encodes an N-terminal GST tag and a thrombin cleavage sequence
The column was washed with 50 mM phosphate buffer, 100 mM NaCl, 5% glycerol, 5 mM […], pH 7.8 and PRMT8 was eluted by 100 mM phosphate in the same buffer. Protein was concentrated and buffer was exchanged to 50 mM Tris, 300 mM NaCl, 10% glycerol, 5 mM 3-mercaptoethanol, pH 7.8 by ultrafiltration. The purity of recovered protein was 89%.
General Procedure for PRMT8 Enzyme Assays on Peptide Substrates.
The assays were all performed in a buffer consisting of 20 mM Bicine (pH=7.6), 1 mM TCEP, 0.005% BSG, and 0.002% Tween 20, prepared on the day of use. Compounds in 100% DMSO (1 ul) were spotted into a polypropylene 384-well V-bottom plates (Greiner) using a Platemate Plus outfitted with a 384-channel head (Thermo Scientific). DMSO (1 ul) was added to Columns 11, 12, 23, 24, rows A-H for the maximum signal control and 1 ul of SAH, a known product and inhibitor of PRMT8, was added to columns 11, 12, 23, 24, rows I-P for the minimum signal control. A cocktail (40 ul) containing the PRMT8 enzyme was added by Multidrop Combi (Thermo-Fisher). The compounds were allowed to incubate with PRMT8 for 30 min at room temperature, then a cocktail (10 ul) containing ^3H-SAM and peptide was added to initiate the reaction (final volume=51 ul). The final concentrations of the components were as follows: PRMT8 was 1.5 nM, ^3H-SAM was 50 nM, non-radiolabeled SAM was 550 nM, peptide was 150 nM, SAH in the minimum signal control wells was 1 mM, and the DMSO concentration was 2%. The assays were stopped by the addition of non-radiolabeled SAM (10 ul) to a final concentration of 400 uM, which dilutes the ^3H-SAM to a level where its incorporation into the peptide substrate is no longer detectable. 50 ul of the reaction in the 384-well polypropylene plate was then transferred to a 384-well Flashplate and the biotinylated peptides were allowed to bind to the streptavidin surface for at least 1 hour before being washed once with 0.1% Tween20 in a Biotek ELx405 plate washer. The plates were then read in a PerkinElmer TopCount plate reader to measure the quantity of ^3H-labeled peptide bound to the Flashplate surface, measured as disintegrations per minute (dpm) or alternatively, referred to as counts per minute (cpm).
(§2) Where dpm=disintegrations per minute, cmpd=signal in assay well, and min and max are the respective minimum and maximum signal controls.
(§3) Where top and bottom are the normally allowed to float, but may be fixed at 100 or 0 respectively in a 3-parameter fit. The Hill Coefficient normally allowed to float but may also be fixed at 1 in a 3-parameter fit. Y is the % inhibition and X is the compound concentration.

[2] = molecular target: T2, PRMT1 (Homo sapiens, UniProt Q99873); assay: PRMT1 Biochemical Assay
T2 construct: made in house; host or cells: High Five insect cells (baculovirus)
T2 sequence (Q99873 with tags, fused parts or gaps): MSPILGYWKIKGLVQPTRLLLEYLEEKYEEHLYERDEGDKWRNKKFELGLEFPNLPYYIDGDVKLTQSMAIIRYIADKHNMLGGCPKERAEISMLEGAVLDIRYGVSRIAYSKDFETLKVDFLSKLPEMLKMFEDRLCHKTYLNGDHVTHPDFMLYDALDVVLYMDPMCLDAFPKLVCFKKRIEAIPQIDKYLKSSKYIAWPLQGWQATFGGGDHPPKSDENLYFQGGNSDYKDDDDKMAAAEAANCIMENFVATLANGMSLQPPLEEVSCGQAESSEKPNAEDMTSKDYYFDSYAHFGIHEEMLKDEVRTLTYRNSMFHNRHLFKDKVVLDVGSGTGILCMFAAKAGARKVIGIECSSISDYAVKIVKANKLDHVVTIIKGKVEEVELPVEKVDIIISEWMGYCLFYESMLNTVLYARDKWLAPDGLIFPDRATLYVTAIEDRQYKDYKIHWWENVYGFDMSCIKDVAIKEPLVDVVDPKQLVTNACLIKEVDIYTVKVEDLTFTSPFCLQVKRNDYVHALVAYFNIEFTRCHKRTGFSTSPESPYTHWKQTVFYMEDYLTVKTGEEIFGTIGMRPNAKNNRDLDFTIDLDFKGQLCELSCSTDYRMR
Excerpt: as §1, with “36-50” for “31-45”, “NO.:1).” for “NO.:8).”
Full-length human PRMT1 isoform 1 (NM_001536.5) transcript clone was amplified from an HEK 293 cDNA library, incorporating flanking 5′ sequence encoding a FLAG tag ([…]) (SEQ ID NO.:2) fused directly to Met 1 of PRMT1. The amplified gene was subcloned into pFastBacI (Life Technologies) modified to encode an N-terminal GST tag and a TEV cleavage sequence
GST-tagged PRMT1 was eluted with 50 mM Tris, 2 mM glutathione, pH 7.8, dialysed in buffer A and concentrated to 1 mg/mL. The purity of recovered protein was 73%. Reference: Wasilko, D. J. and S. E. Lee: “TIPS: titerless infected-cells preservation and scale-up” Bioprocess J., 5 (2006), pp. 29-32.
General Procedure for PRMT1 Enzyme Assays on Peptide Substrates.
The assays were all performed in a buffer consisting of 20 mM Bicine (pH=7.6), 1 mM TCEP, 0.005% BSG, and 0.002% Tween 20, prepared on the day of use. Compounds in 100% DMSO (1 ul) were spotted into a polypropylene 384-well V-bottom plates (Greiner) using a Platemate Plus outfitted with a 384-channel head (Thermo Scientific). DMSO (1 ul) was added to Columns 11, 12, 23, 24, rows A-H for the maximum signal control and 1 ul of SAH, a known product and inhibitor of PRMT1, was added to columns 11, 12, 23, 24, rows I-P for the minimum signal control. A cocktail (40 ul) containing the PRMT1 enzyme was added by Multidrop Combi (Thermo-Fisher). The compounds were allowed to incubate with PRMT1 for 30 min at room temperature, then a cocktail (10 ul) containing SAM and peptide was added to initiate the reaction (final volume=51 ul). The final concentrations of the components were as follows: PRMT1 was 0.5 nM, ^3H-SAM was 200 nM, non-radiolabeled SAM was 1.5 uM, peptide was 20 nM, SAH in the minimum signal control wells was 1 mM, and the DMSO concentration was 2%. The assays were stopped by the addition of non-radiolabeled SAM (10 ul) to a final concentration of 300 uM, which dilutes the ^3H-SAM to a level where its incorporation into the peptide substrate is no longer detectable. 50 ul of the reaction in the 384-well polypropylene plate was then transferred to a 384-well Flashplate and the biotinylated peptides were allowed to bind to the streptavidin surface for at least 1 hour before being washed once with 0.1% Tween20 in a Biotek ELx405 plate washer. The plates were then read in a PerkinElmer TopCount plate reader to measure the quantity of ^3H-labeled peptide bound to the Flashplate surface, measured as disintegrations per minute (dpm) or alternatively, referred to as counts per minute (cpm).
as §2, §3

[3] = Table 2, biochemical evaluation, read-out: PRMT8 IC50 (class)
[4] = Table 2a, numerical, single experiment or average of multiple experiments, read-out: PRMT8 IC50
[5] = Table 2, biochemical evaluation, read-out: PRMT1 IC50 (class)
[6] = Table 2a, numerical, single experiment or average of multiple experiments, read-out: PRMT1 IC50

T1 sequence (Q9NR22 whole entry, canonical isoform): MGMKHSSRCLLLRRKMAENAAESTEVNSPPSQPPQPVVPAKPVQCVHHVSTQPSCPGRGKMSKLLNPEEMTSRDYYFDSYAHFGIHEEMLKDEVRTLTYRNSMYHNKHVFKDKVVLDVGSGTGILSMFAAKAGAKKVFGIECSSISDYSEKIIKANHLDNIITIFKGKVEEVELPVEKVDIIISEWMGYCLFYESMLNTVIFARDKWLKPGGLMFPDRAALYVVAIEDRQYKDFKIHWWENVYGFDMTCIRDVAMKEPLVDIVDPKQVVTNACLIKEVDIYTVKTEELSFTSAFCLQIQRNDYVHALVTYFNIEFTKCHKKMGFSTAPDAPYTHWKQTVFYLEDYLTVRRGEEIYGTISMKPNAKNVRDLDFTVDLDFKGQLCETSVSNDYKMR

| Structure (SMILES) | IC50 [1, 3] | IC50 [1, 4] | IC50 [2, 5] | IC50 [2, 6] |
| --- | --- | --- | --- | --- |
| CN(CCN)Cc1ncoc1-c1ccc(C#N)cc1 [Compound 1, 4-(4-(((2-aminoethyl)(methyl)amino)methyl)oxazol-5-yl)benzonitrile] | 3010 to 10000 nM | 1870 nM | 101 to 1000 nM | 314 nM |
| CN(CCN)Cc1ccnn1-c1ccc(C#N)cc1 [Compound 2, 4-(5-(((2-aminoethyl)(methyl)amino)methyl)-1H-pyrazol-1-yl)benzonitrile] | 1010 to 3000 nM | 1300 nM | 101 to 1000 nM | 157 nM |
| CN(CCN)Cc1n[nH]nc1-c1ccc(C#N)cc1 [Compound 3, 4-(5-(((2-aminoethyl)(methyl)amino)methyl)-2H-1,2,3-triazol-4-yl)benzonitrile] | 1010 to 3000 nM | 1550 nM | < 100 nM | 82 nM |
| CN(CCN)Cc1ocnc1-c1ccc(C#N)cc1 [Compound 4, 4-(5-(((2-aminoethyl)(methyl)amino)methyl)oxazol-4-yl)benzonitrile] | 101 to 1000 nM | 509 nM | 101 to 1000 nM | 270 nM |
| CN(CCN)Cc1cnnn1-c1ccc(C#N)cc1 [Compound 5, 4-(5-(((2-aminoethyl)(methyl)amino)methyl)-1H-1,2,3-triazol-1-yl)benzonitrile] | – | – | > 10000 nM | > 10000 nM |
| CN(CCN)Cc1cncn1-c1ccc(C#N)cc1 [Compound 6, 4-(5-(((2-aminoethyl)(methyl)amino)methyl)-1H-imidazol-1-yl)benzonitrile] | 3010 to 10000 nM | 8210 nM | 1010 to 3000 nM | 1680 nM |
| CN(CCN)Cc1nsnc1-c1ccc(C#N)cc1 [Compound 7, 4-(4-(((2-aminoethyl)(methyl)amino)methyl)-1,2,5-thiadiazol-3-yl)benzonitrile] | 101 to 1000 nM | 445 nM | 101 to 1000 nM | 277 nM |
| CC(C)Oc1ccc(-n2nccc2CN(C)CCN)cc1 [Compound 8, N^1-((1-(4-isopropoxyphenyl)-1H-pyrazol-5-yl)methyl)-N^1-methylethane-1,2-diamine] | < 100 nM | 89.7 nM | < 100 nM | 13.9 nM |
| CN(CCN)Cc1ccnn1-c1ccc(Oc2ccccc2)cc1 [Compound 9] | < 100 nM | 71.8 nM | < 100 nM | 15.4 nM |
| CN(CCN)Cc1[nH]cnc1-c1ccc(C#N)cc1 [Compound 10, 4-(5-(((2-aminoethyl)(methyl)amino)methyl)-1H-imidazol-4-yl)benzonitrile] | 3010 to 10000 nM | 3130 nM | 101 to 1000 nM | 215 nM |
| CN(CCN)Cc1oncc1-c1ccc(F)cc1 [Compound 11, N^1-((4-(4-fluorophenyl)isoxazol-5-yl)methyl)-N^1-methylethane-1,2-diamine] | > 10000 nM | > 10000 nM | 1010 to 3000 nM | 2700 nM |
